# Source: the supplement of paper PMC11061612
# Experiments:
# Assay in all cases: combination Emax (second highest fraction inhibited in the dose matrix, 72 h); higher = more inhibition; extreme values may be limits of the assay
# C32 (Melanoma) = system: C32 (Melanoma)
# Summary of the method: (§1)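 Cell lines in DMEM/F12 or RPMI with 10% FBS were plated in 1536-well plates, held 24 hours at 37°C, 5% CO2, then given two-drug dose matrices for 72 hours (DMSO typically 0.2%). Viability was read by CellTiter-Glo 2.0 luminescence and scaled as inhibition from 0 (vehicle wells) to 1 (blank wells). Combination Emax is the second-highest inhibition in the matrix; Bliss excess is observed combination effect minus expected EA + EB − EA·EB, EA and EB being single-agent effects.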
# GCIY (Gastric Carcinoma) = system: GCIY (Gastric Carcinoma)
# Summary of the method: as §1
# [1] = system: L-363 (Plasma Cell Myeloma)
# Summary of the method: as §1
# [2] = system: MDA-MB-175-VII (Breast Carcinoma)
# Summary of the method: as §1
# [3] = system: MRK-nu-1 (Breast Carcinoma)
# Summary of the method: as §1
# [4] = system: NCI-H2009 (Lung Adenocarcinoma)
# Summary of the method: as §1
# [5] = system: NCI-H2023 (Non-Small Cell Lung Carcinoma)
# Summary of the method: as §1
# [6] = system: NTERA-2-cl-D1 (Other Solid Carcinomas)
# Summary of the method: as §1
SMILES,combination Emax (C32 (Melanoma)),combination Emax (GCIY (Gastric Carcinoma)),combination Emax [1],combination Emax [2],combination Emax [3],combination Emax [4],combination Emax [5],combination Emax [6]
"C[C@@H]1COCCN1c1cc(C2([S@](C)(=N)=O)CC2)nc(-c2ccnc3[nH]ccc23)n1 [AZD6738] + C1CC(C1)(C(=O)[O-])C(=O)[O-].N.N.[Pt+2] [Carboplatin] (first compound max 10 µM, 7x7, partner max 10 µM)",0.601,0.643,0.528,0.309,0.6,0.466,0.608,0.524
"O=C(c1cc(Cc2n[nH]c(=O)c3ccccc23)ccc1F)N1CCN(C(=O)C2CC2)CC1 [Olaparib] + CN(CC[C@H](CSC1=CC=CC=C1)NC2=C(C=C(C=C2)S(=O)(=O)NC(=O)C3=CC=C(C=C3)N4CCC(CC4)[C@H](C5=CC=CC=C5C6=CC=C(C=C6)Cl)O)S(=O)(=O)C(F)(F)F)CCO [AZD4320] (first compound max 10 µM, 7x7, partner max 1 µM)",0.253,0.643,0.403,0.389,0.395,0.112,0.165,0.689
"Cc1c2c(nn1C)CSCc1cc(n(C)n1)CSc1cc(c3ccccc3c1)OCCCc1c(C(=O)O)n(C)c3c-2c(Cl)ccc13 [AZD5991] + CC(=O)O[C@H]1C(=O)[C@@]2(C)[C@H]([C@H](OC(=O)c3ccccc3)[C@]3(O)C[C@H](OC(=O)[C@H](O)[C@@H](NC(=O)c4ccccc4)c4ccccc4)C(C)=C1C3(C)C)[C@]1(OC(C)=O)CO[C@@H]1C[C@@H]2O [Paclitaxel] (first compound max 1 µM, 7x7, partner max 3 µM)",0.654,0.686,1,0.505,1,0.715,0.537,0.614
"C[C@@H](Nc1cc(F)cc(F)c1)c1cc(C(=O)N(C)C)cc2c(=O)cc(N3CCOCC3)oc12 [AZD8186] + CC(=O)c1c(C)c2cnc(Nc3ccc(N4CCNCC4)cn3)nc2n(C2CCCC2)c1=O [Palbociclib] (first compound max 10 µM, 7x7, partner max 10 µM)",0.342,0.662,0.737,0.456,0.36,0.256,0.399,0.343
"CS(=O)(=O)CCNCc1ccc(-c2ccc3ncnc(Nc4ccc(OCc5cccc(F)c5)c(Cl)c4)c3c2)o1 [Lapatinib] + Cn1cnc2c(F)c(Nc3ccc(Br)cc3Cl)c(C(=O)NOCCO)cc21 [Selumetinib] (first compound max 10 µM, 7x7, partner max 10 µM)",0.935,0.543,0.104,0.993,0.441,0.53,0.297,0.339
"CN(CCO)CC[C@H](CSc1ccccc1)Nc1ccc(S(=O)(=O)NC(=O)c2ccc(N3CCC([C@@H](O)c4ccccc4-c4ccc(Cl)cc4)CC3)cc2)cc1S(=O)(=O)C(F)(F)F [AZD4320] + CS(=O)(=O)CCNCc1ccc(-c2ccc3ncnc(Nc4ccc(OCc5cccc(F)c5)c(Cl)c4)c3c2)o1 [Lapatinib] (first compound max 1 µM, 7x7, partner max 10 µM)",0.344,0.956,0.154,1,0.387,0.349,0.301,0.965
"C[C@@H](Nc1cc(F)cc(F)c1)c1cc(C(=O)N(C)C)cc2c(=O)cc(N3CCOCC3)oc12 [AZD8186] + C1CN(CCC1(C(=O)N[C@@H](CCO)C2=CC=C(C=C2)Cl)N)C3=NC=NC4=C3C=CN4 [AZD5363] (first compound max 10 µM, 7x7, partner max 10 µM)",0.436,0.743,0.318,0.573,0.305,0.26,0.333,0.348
"O=C(c1cc(Cc2n[nH]c(=O)c3ccccc23)ccc1F)N1CCN(C(=O)C2CC2)CC1 [Olaparib] + Cc1c2c(nn1C)CSCc1cc(n(C)n1)CSc1cc(c3ccccc3c1)OCCCc1c(C(=O)O)n(C)c3c-2c(Cl)ccc13 [AZD5991] (first compound max 10 µM, 7x7, partner max 1 µM)",0.0885,0.181,0.989,0.281,1,0.107,0.12,0.531
"Cc1c2c(nn1C)CSCc1cc(n(C)n1)CSc1cc(c3ccccc3c1)OCCCc1c(C(=O)O)n(C)c3c-2c(Cl)ccc13 [AZD5991] + CS(=O)(=O)CCNCc1ccc(-c2ccc3ncnc(Nc4ccc(OCc5cccc(F)c5)c(Cl)c4)c3c2)o1 [Lapatinib] (first compound max 1 µM, 7x7, partner max 10 µM)",0.228,0.447,0.993,0.973,1,0.237,0.284,0.487
